Reference: patent publication US12209080B2, “Polymorphic forms of kinase inhibitor compound, pharmaceutical composition containing same, preparation method therefor and use thereof” (EQUINOX SCIENCES, LLC, priority 2016, dated 2025)

Columns and labels:
[1] = Thermodynamic stability experiment in solvents at 60° C. (XRD); format: physicochemical; conditions: one day
Description: The crystalline form 1, crystalline form 2, crystalline form 3 and crystalline form 7 of the compound of formula I were mixed with acetone, ethyl acetate, methanol, water and tetrahydrofuran respectively, and then kept at 60° C. for one day for the investigation of the thermodynamic stability of each crystalline form. Insoluble solid was recovered by filtration and analyzed by XRD. Analysis conditions: Shimadzu XRD-6000, CuK source (1.54056 A) 40 kV, 30 mA; detection angle: 5-50°, speed: 5°/min.

[2] = Tissue accumulation experiment in tumor-bearing mice; format: in vivo, BALB/cA nude mice; design: content in Tumor / content in Liver / content in Kidney / content in Heart / content in Lung / content in Muscle / content in Brain: unit not given here
Description: Human colon cancer H-29 cells were implanted into the armpits of BALB/cA nude mice. Seven days after the implantation of H-29 cells, 8 female mice were administered with the crystalline form 1 (twice a day) at 40 mg/kg or sunitinib at 40 mg/kg (once a day). The drug administration was continuous for 21 days. Plasma, tissue and tumor samples were collected for analysis 4 hours after the administration on the 22nd day morning.

[3] = 40 mg/kg for 21 days (crystalline form 1 twice a day, sunitinib once a day), 4 hours after administration on day 22

Question: What does the source list for `Cc1[nH]c(/C=C2\C(=O)Nc3ccc(F)cc32)c(C)c1C(=O)N[C@H]1CCN(C(=O)N(C)C)C1` [crystalline form 1, 5-[5-fluoro-2-oxo-1,2-dihydro-indole-(3Z)-ylidenemethyl]-2,4-dimethyl-1H-pyrrole-3-carboxylic acid ((S)-1-dimethylcarbamoyl-pyrrolidin-3-yl)-amide]?
Answer: crystalline form recovered (XRD) ([1]; acetone, ethyl acetate, methanol or water, conversion not complete in methanol): converted to crystalline form 2; crystalline form recovered (XRD) ([1]; tetrahydrofuran (THF)): to crystalline form 3; content in Brain [2, 3]: 9.3; content in Heart [2, 3]: 124.8; content in Kidney [2, 3]: 418.3; content in Liver [2, 3]: 1,715.3; content in Lung [2, 3]: 144.9; content in Muscle [2, 3]: 77.6; content in Plasma [2, 3]: 191.6; content in Tumor [2, 3]: 153.4; content in plasma, compared with sunitinib ([2]; 40 mg/kg twice a day, 21 days): comparable to that of sunitinib; tissue accumulation in all tested tissues, compared with sunitinib ([2]; 40 mg/kg twice a day, 21 days): significantly lower than that of sunitinib
